Measured values reported in US7786141B2 (Vertex Pharmaceuticals Incorporated, priority 2004, dated 2010).

Columns and labels:
M1 muscarinic receptor = target: T1, M1 muscarinic receptor (Homo sapiens, UniProt P11229); test: Functional mobilization of intracellular calcium (FLIPR) in M1-CHO cells; assay type: cell-based; details: Table 4; for Emax: 100% efficacy is the maximum response obtained with the Carbachol control; for M1 Activity: modulating M1 receptor
T1 construct: expressed in transfected cells; host or cells: CHO (M1-CHO)
T1 sequence (P11229 1-460): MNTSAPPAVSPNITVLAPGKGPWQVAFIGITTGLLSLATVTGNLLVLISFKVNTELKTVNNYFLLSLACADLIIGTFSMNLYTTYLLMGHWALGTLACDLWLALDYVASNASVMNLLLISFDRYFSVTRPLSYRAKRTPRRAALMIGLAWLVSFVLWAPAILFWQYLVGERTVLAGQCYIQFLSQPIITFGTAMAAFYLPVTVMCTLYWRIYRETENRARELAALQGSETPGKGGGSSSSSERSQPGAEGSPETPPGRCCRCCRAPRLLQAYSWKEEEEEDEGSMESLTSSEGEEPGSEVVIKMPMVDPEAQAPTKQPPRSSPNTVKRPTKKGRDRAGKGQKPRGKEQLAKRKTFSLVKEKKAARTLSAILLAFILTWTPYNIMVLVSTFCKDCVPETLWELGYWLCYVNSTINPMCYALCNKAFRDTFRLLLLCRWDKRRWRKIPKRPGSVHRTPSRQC
How it was run: (§1)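 Intracellular calcium rise is measured by FLIPR fluorescence over 60 sec in CHO cells carrying human M1 or M4 receptors. Compounds are tested alone as agonists, or pre-incubated 15 min (or co-applied) ahead of carbachol at its EC80 to detect inhibition.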

M4 muscarinic receptor = target: T2, M4 muscarinic receptor (Homo sapiens, UniProt P08173); test: Functional mobilization of intracellular calcium (FLIPR) in M4-CHO cells; assay type: cell-based; details: Table 4; for Emax: 100% efficacy is the maximum response obtained with the Carbachol control; for M4 Activity: modulating M4 receptor
T2 construct: expressed in transfected cells; host or cells: CHO (M4-CHO)
T2 sequence (P08173 1-479): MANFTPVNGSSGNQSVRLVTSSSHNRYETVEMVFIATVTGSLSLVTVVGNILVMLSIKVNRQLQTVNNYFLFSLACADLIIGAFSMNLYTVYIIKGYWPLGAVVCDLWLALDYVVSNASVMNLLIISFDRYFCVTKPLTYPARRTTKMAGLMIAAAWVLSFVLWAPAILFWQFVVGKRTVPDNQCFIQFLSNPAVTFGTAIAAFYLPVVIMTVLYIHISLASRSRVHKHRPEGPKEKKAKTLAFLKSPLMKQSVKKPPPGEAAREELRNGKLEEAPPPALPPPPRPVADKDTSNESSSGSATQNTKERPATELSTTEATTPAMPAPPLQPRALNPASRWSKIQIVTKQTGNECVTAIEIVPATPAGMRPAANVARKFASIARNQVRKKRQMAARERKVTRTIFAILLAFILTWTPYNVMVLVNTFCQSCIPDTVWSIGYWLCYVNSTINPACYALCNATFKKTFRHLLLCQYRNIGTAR
How it was run: as §1

Row | Structure (SMILES) | Emax (M1 muscarinic receptor) | M1 Activity (M1 muscarinic receptor) | Emax (M4 muscarinic receptor) | M4 Activity (M4 muscarinic receptor)
1 | CCOC(=O)N1CCC(N2CCC3(CC2)CN(C(=O)Nc2ccccc2)c2ccccc23)CC1 [compound 433] | > 100% | xxx (activity was measured to be less than 2.0 μM) | 25 to 100% | xxx (activity was measured to be less than 2.0 μM)
2 | CCOC(=O)N1CCC(N2CCC3(CC2)CN(C(C)=O)c2c(-c4ccc(OC)cc4)cccc23)CC1 [compound 434] | 25 to 100% | x (activity was measured to be greater than 5.0 μM) | 25 to 100% | xxx (activity was measured to be less than 2.0 μM)
3 | CN(C)C(=O)N1CC2(CCN(C3CCN(C(=O)c4ccco4)CC3)CC2)c2cc(F)ccc21 [compound 435] | 25 to 100% | xxx (activity was measured to be less than 2.0 μM) | 25 to 100% | xxx (activity was measured to be less than 2.0 μM)
4 | CC(=O)N[C@H]1CC2(CCN(C3CCN(C)CC3C)CC2)c2ccccc21 (some centres unmarked) [compound 436] | < 25% | x (activity was measured to be greater than 5.0 μM) | < 25% | x (activity was measured to be greater than 5.0 μM)
5 | CC(=O)N[C@@H]1CC2(CCN(C3CCOCC3)CC2)c2ccccc21 [compound 437] | < 25% | x (activity was measured to be greater than 5.0 μM) | < 25% | x (activity was measured to be greater than 5.0 μM)
6 | CN(C)C(=O)N[C@H]1CC2(CCN(C[C@@H]3C[C@H]4C=C[C@H]3C4)CC2)c2ccccc21 [compound 438] | 25 to 100% | xxx (activity was measured to be less than 2.0 μM) | < 25% | xxx (activity was measured to be less than 2.0 μM)
7 | CC(=O)N1CC2(CCN(C3CC4CCC(C3)N4C(=O)OCC3CC3)CC2)c2ccccc21 (centres unmarked) [compound 439] | 25 to 100% | xxx (activity was measured to be less than 2.0 μM) | 25 to 100% | xxx (activity was measured to be less than 2.0 μM)
8 | CC(=O)N1CC2(CCN(C3CCN(C(=O)OC(C)C)CC3)CC2)c2ccccc21 [compound 440] | 25 to 100% | xxx (activity was measured to be less than 2.0 μM) | 25 to 100% | xxx (activity was measured to be less than 2.0 μM)
9 | CC(=O)N1CC2(CCN(C3CCN(C(C)C)CC3)CC2)c2cc(F)ccc21 [compound 441] | < 25% | x (activity was measured to be greater than 5.0 μM) | < 25% | x (activity was measured to be greater than 5.0 μM)
10 | COc1cc2c(cc1OC)C1(CCN(C3CCCCCC3)CC1)C[C@@H]2NC(C)=O [compound 442] | < 25% | x (activity was measured to be greater than 5.0 μM) | < 25% | x (activity was measured to be greater than 5.0 μM)
11 | C#CCOC(=O)N1CC[C@H](CN2CCC3(CC2)CN(C(=O)N(C)C)c2ccc(F)cc23)C1 [compound 443] | > 100% | xxx (activity was measured to be less than 2.0 μM) | > 100% | xxx (activity was measured to be less than 2.0 μM)
12 | CCOC(=O)N1C2CCC1CC(N1CCC3(CC1)CN(C(C)=O)c1c(C)cccc13)C2 (centres unmarked) [compound 444] | 25 to 100% | xx (activity was measured to be between 2.0 μM and 5.0 μM) | 25 to 100% | xx (activity was measured to be between 2.0 μM and 5.0 μM)
13 | CC#CCOC(=O)N1CC[C@H](CN2CCC3(CC2)CN(C(C)=O)c2cccc(C)c23)C1 [compound 445] | 25 to 100% | xxx (activity was measured to be less than 2.0 μM) | 25 to 100% | xxx (activity was measured to be less than 2.0 μM)
14 | COc1ccccc1C(=O)N1CCC(N2CCC3(CC2)CN(C(=O)N(C)C)c2ccc(F)cc23)CC1 [compound 446] | 25 to 100% | x (activity was measured to be greater than 5.0 μM) | < 25% | x (activity was measured to be greater than 5.0 μM)
